These results are taken from article PMC5400620, “Preclinical therapeutic efficacy of a novel blood-brain barrier-penetrant dual PI3K/mTOR inhibitor with preferential response in PI3K/PTEN mutant glioma” (Oncotarget, 2017).

This assay deals with U87 GFP-LC3 cells. Put plainly: GFP-LC3 puncta detection (autophagy). Format: cell-based, human. To be noted: TMZ 125 μM, DS 100 nM, control 2%. An excerpt: To investigate the effects of DS, TMZ, or the TMZ/DS combination on autophagy in glioma cells, we transfected cells with GFP-LC3 constructs in addition to various drug treatment and control treatment regimens and examined the accumulation of punctate GFP-LC3 structures using fluorescence microscopy. During autophagy, LC3-II relocalizes to the autophagosomal membranes. Thus, the accumulation of GFP-LC3 puncta provides an effective way to detect autophagosomes. In control cells, GFP-LC3 punctate structures were not detected, but large numbers of GFP-LC3 punctate structures were found in cells treated with DS or TMZ (Figure 5C). […] Strikingly, the combination of DS and TMZ further induced autophagy in up to 50% of U87 cells.
U87 GFP-LC3 cells were analyzed by using a fluorescence microscope, and the percentage of cells displaying GFP-LC3-positive puncta was quantified by counting 5 random fields in 3 independent experiments.

On to `CC(=O)N1CCN(c2nc3c(N4CCOCC4)nc(-c4cnc(N)nc4)nc3n2CC(F)(F)F)C[C@H]1C` [DS, 1-{(2R)-4-[2-(2-Aminopyrimidin-5-yl)-6-(morpholin-4-yl)-9-(2,2,2-trifluoroethyl)-9H-purin-8-yl]-2-methylpiperazin-1-yl}ethan-1-one], for which the “cells with induced autophagy (GFP-LC3 puncta)” value is 30%.
